Laboratory results reported in US9328099B2, “Cyanomethylpyrazole carboxamides as janus kinase inhibitors” (Merck Sharp & Dohme Corp., priority 2011, dated 2016).

Columns and labels:
JAK1 = JAK1 (Homo sapiens (Human), UniProt P23458); experiment: Jak Biochemical HTRF Assay, JAK1; conditions: HTRF biochemical assay, GST-tagged catalytic domain; top concentration tested […]; read-out: JAK1 IC50
Description: (§1) Jak Biochemical HTRF Assay Protocol
(§2) Subsequent reagent additions employed an Agilent Bravo.

JAK2 = JAK2 (Homo sapiens (Human), UniProt O60674); experiment: Jak Biochemical HTRF Assay, JAK2; conditions: HTRF biochemical assay, GST-tagged catalytic domain; top concentration tested […]
Description: as §1, §2

Sequence of JAK1 (P23458 875-1153): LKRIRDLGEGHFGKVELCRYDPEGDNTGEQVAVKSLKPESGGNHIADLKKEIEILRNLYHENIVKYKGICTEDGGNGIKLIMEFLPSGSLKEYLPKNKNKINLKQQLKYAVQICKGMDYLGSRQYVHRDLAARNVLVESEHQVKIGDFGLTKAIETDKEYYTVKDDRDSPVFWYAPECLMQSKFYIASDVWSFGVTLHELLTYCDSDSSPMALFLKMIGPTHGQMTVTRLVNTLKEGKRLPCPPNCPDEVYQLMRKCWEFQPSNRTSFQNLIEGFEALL
Sequence of JAK2 (O60674 849-1124): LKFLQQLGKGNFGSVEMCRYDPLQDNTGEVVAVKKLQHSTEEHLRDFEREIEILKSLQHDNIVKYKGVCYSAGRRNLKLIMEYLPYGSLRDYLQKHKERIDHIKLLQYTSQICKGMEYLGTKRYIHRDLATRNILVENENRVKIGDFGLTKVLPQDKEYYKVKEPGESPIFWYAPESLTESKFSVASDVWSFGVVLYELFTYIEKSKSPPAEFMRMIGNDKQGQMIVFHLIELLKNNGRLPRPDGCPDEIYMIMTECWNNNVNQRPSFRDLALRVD

Structure (SMILES) | IC50 (JAK1) [nM] | IC50 (JAK2) [nM]
CC(C)(C)OC(=O)N1CCC(CC#N)(n2cc(C(N)=O)c(Nc3cncc(F)c3)n2)CC1 [Example 9-35, tert-butyl 4-{4-carbamoyl-3-[(5-fluoropyridin-3-yl)amino]-1H-pyrazol-1-yl}-4-(cyanomethyl)piperidine-1-carboxylate] | 1 | 16
N#CCC1(n2cc(C(N)=O)c(Nc3ccc(C4CCC4)nc3)n2)CCN(C(=O)OCC(F)F)CC1 [Example 9-38, 2,2-difluoroethyl 4-{4-carbamoyl-3-[(6-cyclobutylpyridin-3-yl)amino]-1H-pyrazol-1-yl}-4-(cyanomethyl)piperidine-1-carboxylate] | 0.3 | 3
COc1cc(Nc2nn(C3(CC#N)CCN(C(=O)OCC(F)F)CC3)cc2C(N)=O)ccn1 [Example 9-39, 2,2-difluoroethyl 4-{4-carbamoyl-3-[(2-methoxypyridin-4-yl)amino]-1H-pyrazol-1-yl}-4-(cyanomethyl)piperidine-1-carboxylate] | 7 | 348
N#CCC1(n2cc(C(N)=O)c(Nc3ccnc(C4CC4)c3)n2)CCN(C(=O)OCC(F)F)CC1 [Example 9-41, 2,2-difluoroethyl 4-{4-carbamoyl-3-[(2-cyclopropylpyridin-4-yl)amino]-1H-pyrazol-1-yl}-4-(cyanomethyl)piperidine-1-carboxylate] | 6 | 201
N#CCC1(n2cc(C(N)=O)c(Nc3cccc(-c4cc[nH]n4)c3)n2)CCN(C(=O)OCC(F)(F)F)CC1 [Example 10-4, 2,2,2-trifluoroethyl 4-(3-(3-(1H-pyrazol-3-yl)phenylamino)-4-carbamoyl-1H-pyrazol-1-yl)-4-(cyanomethyl)piperidine-1-carboxylate] | 0.4 | 29
Cn1cc(-c2cccc(Nc3nn(C4(CC#N)CCN(C(=O)OCC(F)(F)F)CC4)cc3C(N)=O)c2)cn1 [Example 10-5, 2,2,2-trifluoroethyl 4-(4-carbamoyl-3-(3-(1-methyl-1H-pyrazol-4-yl)phenylamino)-1H-pyrazol-1-yl)-4-(cyanomethyl)piperidine-1-carboxylate] | 0.2 | 21
N#CCC1(n2cc(C(N)=O)c(Nc3cncc(Cl)c3)n2)CCN(C(=O)OCC(F)(F)F)CC1 [Example 10-9, 2,2,2-trifluoroethyl 4-{4-carbamoyl-3-[(5-chloropyridin-3-yl)amino]-1H-pyrazol-1-yl}-4-(cyanomethyl)piperidine-1-carboxylate] | 0.4 | 15
N#CCC1(n2cc(C(N)=O)c(Nc3ccc(-c4cn[nH]c4)nc3)n2)CCN(C(=O)OCC(F)(F)F)CC1 [Example 11-2, 2,2,2-trifluoroethyl 4-(4-carbamoyl-3-{[6-(1H-pyrazol-4-yl)pyridin-3-yl]amino}-1H-pyrazol-1-yl)-4-(cyanomethyl)piperidine-1-carboxylate] | 0.01 | 0.6
COC(=O)Cc1ccc(Nc2nn(C3(CC#N)CCN(C(=O)OC(C)(C)C)CC3)cc2C(N)=O)cc1 [Example 12-2, tert-butyl 4-(4-carbamoyl-3-{[4-(2-methoxy-2-oxoethyl)phenyl]amino}-1H-pyrazol-1-yl)-4-(cyanomethyl)piperidine-1-carboxylate] | 0.2 | 3

More lines, in order of falling IC50 (JAK1), values ahead:

IC50 (JAK1) [nM] | IC50 (JAK2) [nM] | Structure (SMILES)
2 | 42 | CC(C)(C)OC(=O)N1CCC(CC#N)(n2cc(C(N)=O)c(Nc3cc(F)cc(F)c3)n2)CC1 [Example 12-3, tert-butyl 4-{4-carbamoyl-3-[(3,5-difluorophenyl)amino]-1H-pyrazol-1-yl}-4-(cyanomethyl)piperidine-1-carboxylate]
0.9 | 21 | CC(C)(C)OC(=O)N1CCC(CC#N)(n2cc(C(N)=O)c(Nc3cncc(Cl)c3)n2)CC1 [Example 9-36, tert-butyl 4-{4-carbamoyl-3-[(5-chloropyridin-3-yl)amino]-1H-pyrazol-1-yl}-4-(cyanomethyl)piperidine-1-carboxylate]
0.8 | 71 | Cn1cc(-c2cncc(Nc3nn(C4(CC#N)CCN(C(=O)OCC(F)(F)F)CC4)cc3C(N)=O)c2)cn1 [Example 10-6, 2,2,2-trifluoroethyl 4-(4-carbamoyl-3-(5-(1-methyl-1H-pyrazol-4-yl)pyridinl-3-ylamino)-1H-pyrazol-1-yl)-4-(cyanomethyl)piperidine-1-carboxylate]
0.8 | 3 | CC(C)(C)OC(=O)N1CCC(CC#N)(n2cc(C(N)=O)c(Nc3ccc(N4CCOCC4)nc3)n2)CC1 [Example 12-4, tert-butyl 4-(4-carbamoyl-3-{[6-(morpholin-4-yl)aphthal-3-yl]amino}-1H-pyrazol-1-yl)-4-(cyanomethyl)piperidine-1-carboxylate]
0.7 | 21 | N#CCC1(n2cc(C(N)=O)c(Nc3cncc(F)c3)n2)CCN(C(=O)OCC(F)(F)F)CC1 [Example 10-8, 2,2,2-trifluoroethyl 4-(4-carbamoyl-3-(5-fluoropyridin-3-ylamino)-1H-pyrazol-1-yl)-4-(cyanomethyl)piperidine-1-carboxylate]
0.5 | 4 | CC(C)(C)OC(=O)N1CCC(CC#N)(n2cc(C(N)=O)c(Nc3cccnc3)n2)CC1 [Example 9-34, tert-butyl 4-[4-carbamoyl-3-(pyridin-3-ylamino)-1H-pyrazol-1-yl]-4-(cyanomethyl)piperidine-1-carboxylate]
0.5 | 4 | N#CCC1(n2cc(C(N)=O)c(Nc3ccc(S(=O)(=O)C(F)(F)F)cc3)n2)CCN(C(=O)OCC(F)(F)F)CC1 [Example 10-2, 2,2,2-trifluoroethyl 4-(4-carbamoyl-3-(4-(trifluoromethylsulfonyl)phenylamino)-1H-pyrazol-1-yl)-4-(cyanomethyl)piperidine-1-carboxylate]
0.2 | 6 | CC(C)(C)OC(=O)N1CCC(CC#N)(n2cc(C(N)=O)c(Nc3ccnc(C#N)c3)n2)CC1 [Example 9-33, tert-butyl 4-{4-carbamoyl-3-[(2-cyanopyridin-4-yl)amino]-1H-pyrazol-1-yl}-4-(cyanomethyl)piperidine-1-carboxylate]
0.2 | 4 | N#CCC1(n2cc(C(N)=O)c(Nc3cccnc3)n2)CCN(C(=O)OCC(F)(F)F)CC1 [Example 10-7, 2,2,2-trifluoroethyl 4-(4-carbamoyl-3-(pyridin-3-ylamino)-1H-pyrazol-1-yl)-4-(cyanomethyl)piperidine-1-carboxylate]
0.06 | 0.6 | N#CCC1(n2cc(C(N)=O)c(Nc3ccc(C(O)C(F)(F)F)nc3)n2)CCN(C(=O)OCC(F)(F)F)CC1 (stereo not shown) [Example 10-3, 2,2,2-trifluoroethyl 4-(4-carbamoyl-3-(6-(2,2,2-trifluoro-1-hydroxyethyl)pyridin-3-ylamino)-1H-pyrazol-1-yl)-4-(cyanomethyl)piperidine-1-carboxylate]
0.03 | 0.5 | Cn1cc(-c2ccc(Nc3nn(C4(CC#N)CCN(C(=O)OCC(F)(F)F)CC4)cc3C(N)=O)cn2)cn1 [Example 11-1, 2,2,2-Trifluoroethyl 4-(4-carbamoyl-3-{[6-(1-methyl-1H-pyrazol-4-yl)pyridin-3-yl]amino}-1H-pyrazol-1-yl)-4-(cyanomethyl)piperidine-1-carboxylate]
